Laboratory results reported in patent publication US7544690B2, “MCH receptor antagonists” (Taisho Pharmaceutical Co., Ltd., priority 2001, dated 2009).
Counter-ions that a name gives are not always drawn.

Biological target: T1, non-endogenous version of the MCH receptor (MCH-IC3-SST2) (Homo sapiens, UniProt Q99705, A240I/A242V/I247R/L249K/M235V/P241R/Q244S/R234K/R245S/R248K/R250S/R253K/S243G/S246K/T236K/T251E/V239G)
T1 construct: creating a MCH-IC3-SST2 mutation (see); expressed in transfected cells; cultured with 0.5 mg/ml G418, so I infer a stably transfected line
Assay: FLIPR/FDSS6000 functional assay: intracellular Ca2+ changes evoked by MCH
Assay type: cell-based
Conditions: antagonist activity; 50 nM of MCH; transient changes in [Ca2+]i monitored by FLIPR or FDSS
Text: Subsequently, a functional based assay was used to confirm the lead hits, referred to as FLIPR™ (the Fluorometric Imaging Plate Reader) and FDSS6000™ (Functional Drug Screening System). This assay utilized a non-endogenous version of the MCH receptor, which was created by swapping the third intracellular loop of the MCH receptor with that of the SST2 receptor (see Example 2(B)(2) of patent application Ser. No. 09/826,509).
The FLIPR and FDSS assays are able to detect intracellular Ca^2+ concentration in cells, which can be utilized to assess receptor activation and determine whether a candidate compound is an, for example, antagonist, inverse agonist or agonist to a Gq-coupled receptor. The concentration of free Ca^2+ in the cytosol of any cell is extremely low, whereas its concentration in the extracellular fluid and endoplasmic reticulum (ER) is very high. Thus, there is a large gradient tending to drive Ca^2+ into the cytosol across both the plasma membrane and ER. […]
To confirm the lead hits identified using the [^35S]GTPγS assay, Fluorometric Imaging Plate Reader system was used to allow for rapid, kinetic measurements of intracellular fluorescence in 96 well microplates (or 384 well microplates). Simultaneous measurements of fluorescence in all wells can be made by FLIPR or FDSS6000™, every second with high sensitivity and precision. […]

T1 sequence (Q99705 1-353 with the stated changes): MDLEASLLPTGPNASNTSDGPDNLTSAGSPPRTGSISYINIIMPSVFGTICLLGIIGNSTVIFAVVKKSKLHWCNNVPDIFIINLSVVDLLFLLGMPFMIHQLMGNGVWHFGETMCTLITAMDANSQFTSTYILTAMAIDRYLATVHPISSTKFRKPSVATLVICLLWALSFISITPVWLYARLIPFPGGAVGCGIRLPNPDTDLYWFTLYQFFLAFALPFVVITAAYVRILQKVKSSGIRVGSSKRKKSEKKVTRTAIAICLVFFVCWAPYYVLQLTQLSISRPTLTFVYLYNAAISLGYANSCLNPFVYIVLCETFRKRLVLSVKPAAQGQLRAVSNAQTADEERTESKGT

Row | SMILES | IC50
1 | CN(C)c1nc(N[C@H]2CC[C@@H](CNCc3ccc(Br)cc3OC(F)(F)F)CC2)nc2ccccc12 [Example 41, cis-N^2-{4-[(4-Bromo-2-trifluoromethoxy-benzylamino)-methyl]-cyclohexyl}-N^4,N^4-dimethyl-quinazoline-2,4-diamine dihydrochloride] | 6 nM
2 | CN(C)c1nc(N[C@H]2CC[C@@H](CNCc3ccccc3OC(F)(F)F)CC2)nc2ccccc12 [Example 42, cis-N^4,N^4-Dimethyl-N^2-{4-[(2-trifluoromethoxy-benzylamino)-methyl]-cyclohexyl}-quinazoline-2,4-diamine dihydrochloride] | 19 nM
